The values below come from US12331044B2, “Inhibitors of histone deacetylase useful for the treatment or prevention of HIV infection” (Merck Sharp & Dohme LLC, priority 2018, dated 2025).

Read-outs that look alike come from different tables or passages of the source.

For experiment [1], the target named is HDAC6 (Homo sapiens (Human), UniProt Q9UBN7).
Description: The histone deacetylase activities of HDAC1, HDAC2, HDAC3, HDAC6, and HDAC8 were measured in modified FLUOR DE LYS assays in 384-well format. In this assay, HDAC enzymes are initially incubated with an F-acetyl (or -trifluoroacetyl)-L-lysine-containing substrate with a C-terminal amide having aminomethylcoumarin as the amine component. HDACs cleave the F-acetyl group, rendering the resulting product susceptible to AMC cleavage by trypsin. The released AMC is then detected by its fluorescence. […] All steps were performed at room temperature (23° C.). The assay was performed by pre-incubating serial dilutions of test compounds with the target HDAC prior to initiation with substrate. […] Final conditions used for each assay were: 1. […] The reactions were stopped and developed by addition of 30 ul of HDAC developer solution containing a saturating level of HDAC inhibitor as follows: 1. […] For data analysis, background subtracted product (fluorescence) vs. time data for each inhibitor concentration was fitted using a 4-parameter fit.
Experiment [2] concerns the target human HDAC3/SMRT heterodimer (Homo sapiens (Human), UniProt O15379).
The target of experiment [3] is human HDAC1 (Homo sapiens (Human), UniProt Q13547).
The test system of experiment [4] is KARN cells (Jurkat 2C4). In words: cells. The note with it: Homo sapiens.
Description: KARN Assay Cell Maintenance
KARN cells (Jurkat 2C4) were licensed from the laboratory of Dr. John Karn, Case Western Reserve University, School of Medicine. […] An atmosphere of 5% CO2 and 90% humidity was used for all culture work.
These flasks were returned to the incubator.
The cells were gently resuspended in assay media (30 ml) and pelleted again. […] The cells were counted using the ViCell (Beckman Coulter) and diluted as necessary. […] The plates were covered and returned to the incubator prior to compound addition.
The reference compounds, DMSO and SAHA were then added to the compound plate. […] The final high concentration for SAHA and the test compounds in the assays was 40 μM. The final DMSO concentration in all wells was 0.4%. The minimal induction reference compound used was DMSO and the maximal induction reference compound used was SAHA (2 μM final concentration in the assay).
Day 3: The luciferase detection reagent was prepared by transferring the contents of one bottle of Steady-Glo buffer to one bottle of Steady-Glo aubstrate (Steady-Glo Luciferase Assay System, Promega, catalog number E2520), followed by gently mixing until the substrate was thoroughly dissolved and the solution was equilibrated to room temperature. […] The Steady-Glo Reagent was added to the plates (30 μl/well), which were then covered with a black lid and incubated for 10 minutes at room temperature. The plates were then read for luminescence on an Envision (Perkin Elmer) using the ultrasensitive mode (US LUM), 0.1 counts per second and 384-well aperture. Luminescence counts in the DMSO reference wells were considered as 0% induction, while those in the 2 μM SAHA reference wells were considered as 100% induction. Dose response curves were plotted as test compound concentration (X-axis) vs. percent activation (Y-axis) using a 4-parameter fit based on the Levenberg-Marquardt algorithm.
The target in experiment [5] is human HDAC2 (Homo sapiens (Human), UniProt Q92769). In words: HDAC2 inhibition assay (modified FLUOR DE LYS, 384-well). The experiment is classed as biochemical. The settings on record: […] enzyme, 40 μM substrate BML-KI104, 3 h pre-incubation; read-out: HDAC2 IC50.
Experiment [6] addresses human HDAC8 (Homo sapiens (Human), UniProt Q9BY41). The experiment is described as follows: HDAC8 inhibition assay (modified FLUOR DE LYS, 384-well). The experiment is classed as biochemical. The note with it: […] enzyme, 200 μM substrate BML-KI178, 3 h pre-incubation; read-out: HDAC8 IC50.
[7] abbreviates: read-out: Karn EC50 nM 0.1% NHS, 0.1% normal human serum, luciferase induction, 2 μM SAHA = 100%.
Setting [8] is: read-out: Karn EC50 nM 5% NHS, 5% normal human serum, luciferase induction, 2 μM SAHA = 100%.

human HDAC3/SMRT heterodimer, sequence (O15379 whole entry): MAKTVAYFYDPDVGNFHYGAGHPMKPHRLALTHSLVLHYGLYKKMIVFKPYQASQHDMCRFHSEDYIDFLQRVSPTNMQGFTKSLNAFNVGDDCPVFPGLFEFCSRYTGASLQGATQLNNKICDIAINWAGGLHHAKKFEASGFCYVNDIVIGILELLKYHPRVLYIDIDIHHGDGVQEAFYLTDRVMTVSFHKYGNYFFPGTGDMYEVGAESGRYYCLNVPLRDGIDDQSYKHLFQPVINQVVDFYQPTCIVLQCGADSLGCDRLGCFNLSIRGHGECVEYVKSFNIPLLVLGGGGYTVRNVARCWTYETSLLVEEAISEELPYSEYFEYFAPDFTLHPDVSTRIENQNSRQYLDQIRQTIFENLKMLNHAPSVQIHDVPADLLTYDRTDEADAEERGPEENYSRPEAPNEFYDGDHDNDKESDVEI
human HDAC3/SMRT heterodimer, sequence (Q9Y618 1-899 partner): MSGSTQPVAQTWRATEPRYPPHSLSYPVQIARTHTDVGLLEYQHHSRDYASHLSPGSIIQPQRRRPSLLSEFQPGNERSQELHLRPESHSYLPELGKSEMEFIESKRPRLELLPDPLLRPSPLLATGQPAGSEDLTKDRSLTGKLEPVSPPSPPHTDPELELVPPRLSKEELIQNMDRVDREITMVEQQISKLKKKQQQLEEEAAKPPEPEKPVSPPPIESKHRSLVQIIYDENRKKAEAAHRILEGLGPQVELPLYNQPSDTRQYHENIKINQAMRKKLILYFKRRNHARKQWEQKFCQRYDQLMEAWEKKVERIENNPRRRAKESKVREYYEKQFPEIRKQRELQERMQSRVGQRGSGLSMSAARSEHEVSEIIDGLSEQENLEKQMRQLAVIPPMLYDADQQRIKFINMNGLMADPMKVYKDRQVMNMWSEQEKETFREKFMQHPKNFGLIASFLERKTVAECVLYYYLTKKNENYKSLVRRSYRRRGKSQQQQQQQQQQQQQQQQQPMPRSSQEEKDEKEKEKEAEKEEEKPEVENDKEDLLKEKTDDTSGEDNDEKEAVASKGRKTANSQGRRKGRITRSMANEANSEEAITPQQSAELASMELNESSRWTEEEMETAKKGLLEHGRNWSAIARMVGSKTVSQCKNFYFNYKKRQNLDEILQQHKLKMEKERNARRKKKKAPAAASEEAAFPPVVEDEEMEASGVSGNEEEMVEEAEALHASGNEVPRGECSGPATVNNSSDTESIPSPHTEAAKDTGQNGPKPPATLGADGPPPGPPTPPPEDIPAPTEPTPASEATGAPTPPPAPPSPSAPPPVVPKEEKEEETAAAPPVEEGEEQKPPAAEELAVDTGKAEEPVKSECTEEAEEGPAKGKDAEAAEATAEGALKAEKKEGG
human HDAC2, sequence (Q92769 whole entry): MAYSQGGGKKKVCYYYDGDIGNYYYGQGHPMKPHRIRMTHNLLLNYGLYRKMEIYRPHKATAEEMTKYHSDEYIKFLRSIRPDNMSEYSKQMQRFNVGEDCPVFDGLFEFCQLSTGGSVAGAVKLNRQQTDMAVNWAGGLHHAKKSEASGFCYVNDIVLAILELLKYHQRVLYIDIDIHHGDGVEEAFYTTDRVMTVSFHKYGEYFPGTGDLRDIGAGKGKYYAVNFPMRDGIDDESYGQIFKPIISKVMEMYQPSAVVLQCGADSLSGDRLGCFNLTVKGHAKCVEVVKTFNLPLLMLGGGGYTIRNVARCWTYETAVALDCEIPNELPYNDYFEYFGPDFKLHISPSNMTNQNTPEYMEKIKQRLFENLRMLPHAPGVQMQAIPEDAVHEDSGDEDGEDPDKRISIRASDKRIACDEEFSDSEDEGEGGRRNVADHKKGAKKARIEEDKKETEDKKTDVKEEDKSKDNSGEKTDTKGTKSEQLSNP
human HDAC8, sequence (Q9BY41 whole entry): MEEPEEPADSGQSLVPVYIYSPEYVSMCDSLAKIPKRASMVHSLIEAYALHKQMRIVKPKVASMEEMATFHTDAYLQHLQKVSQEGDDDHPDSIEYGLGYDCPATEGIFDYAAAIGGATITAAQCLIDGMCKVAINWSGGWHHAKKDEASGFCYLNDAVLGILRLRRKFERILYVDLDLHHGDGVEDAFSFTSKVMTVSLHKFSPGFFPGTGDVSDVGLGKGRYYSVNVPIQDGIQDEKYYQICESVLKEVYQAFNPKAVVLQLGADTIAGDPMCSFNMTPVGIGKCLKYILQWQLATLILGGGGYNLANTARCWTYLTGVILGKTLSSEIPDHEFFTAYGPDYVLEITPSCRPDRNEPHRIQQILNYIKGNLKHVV
human HDAC1, sequence (Q13547 whole entry): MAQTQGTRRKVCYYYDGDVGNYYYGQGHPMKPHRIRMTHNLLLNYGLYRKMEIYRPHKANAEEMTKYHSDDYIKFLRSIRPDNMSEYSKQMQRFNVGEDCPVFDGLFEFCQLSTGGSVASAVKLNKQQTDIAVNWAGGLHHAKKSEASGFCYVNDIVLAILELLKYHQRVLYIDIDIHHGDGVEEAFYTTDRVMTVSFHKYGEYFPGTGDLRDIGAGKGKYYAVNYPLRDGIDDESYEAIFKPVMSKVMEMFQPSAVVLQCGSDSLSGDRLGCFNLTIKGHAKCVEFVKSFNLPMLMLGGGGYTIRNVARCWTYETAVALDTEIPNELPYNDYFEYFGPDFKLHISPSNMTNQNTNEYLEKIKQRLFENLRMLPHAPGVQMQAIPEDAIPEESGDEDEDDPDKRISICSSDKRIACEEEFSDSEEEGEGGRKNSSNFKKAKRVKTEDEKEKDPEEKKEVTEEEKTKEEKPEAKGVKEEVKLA
HDAC6, sequence (Q9UBN7 whole entry): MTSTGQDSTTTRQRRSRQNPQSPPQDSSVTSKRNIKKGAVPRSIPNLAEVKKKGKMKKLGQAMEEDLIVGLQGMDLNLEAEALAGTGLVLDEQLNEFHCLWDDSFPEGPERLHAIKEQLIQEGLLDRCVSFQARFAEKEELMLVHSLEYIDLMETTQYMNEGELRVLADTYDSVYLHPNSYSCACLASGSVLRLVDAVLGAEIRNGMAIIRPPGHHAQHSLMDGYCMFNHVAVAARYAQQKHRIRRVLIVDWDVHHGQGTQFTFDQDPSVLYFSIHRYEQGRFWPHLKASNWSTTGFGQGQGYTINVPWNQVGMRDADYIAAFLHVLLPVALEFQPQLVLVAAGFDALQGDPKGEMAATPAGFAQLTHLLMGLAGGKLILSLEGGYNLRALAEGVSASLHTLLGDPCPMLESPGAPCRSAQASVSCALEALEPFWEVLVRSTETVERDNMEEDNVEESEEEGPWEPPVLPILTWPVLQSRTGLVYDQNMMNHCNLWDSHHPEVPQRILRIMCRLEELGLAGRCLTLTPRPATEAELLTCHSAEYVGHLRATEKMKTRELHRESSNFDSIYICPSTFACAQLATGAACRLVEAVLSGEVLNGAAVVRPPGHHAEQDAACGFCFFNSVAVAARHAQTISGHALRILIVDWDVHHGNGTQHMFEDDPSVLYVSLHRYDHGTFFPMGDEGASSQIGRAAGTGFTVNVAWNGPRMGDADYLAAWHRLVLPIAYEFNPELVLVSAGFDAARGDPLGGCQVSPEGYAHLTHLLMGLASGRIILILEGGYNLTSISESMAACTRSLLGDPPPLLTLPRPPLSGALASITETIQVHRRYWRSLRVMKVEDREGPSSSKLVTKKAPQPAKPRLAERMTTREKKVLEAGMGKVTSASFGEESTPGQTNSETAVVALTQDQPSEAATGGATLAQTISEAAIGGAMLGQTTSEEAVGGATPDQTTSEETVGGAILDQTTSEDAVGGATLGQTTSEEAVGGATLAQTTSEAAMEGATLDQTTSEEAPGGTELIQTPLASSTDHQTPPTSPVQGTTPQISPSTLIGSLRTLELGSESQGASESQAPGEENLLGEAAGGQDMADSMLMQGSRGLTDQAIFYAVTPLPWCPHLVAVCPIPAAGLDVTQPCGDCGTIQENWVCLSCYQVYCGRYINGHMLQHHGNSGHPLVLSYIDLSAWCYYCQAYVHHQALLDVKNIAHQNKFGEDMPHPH

The term IC50 denotes the concentration at which inhibition is half-maximal. As a reminder, the EC50 is the midpoint of the concentration-response curve. In the case of `Cc1cc(C(=O)CCCCC[C@H](NC(=O)CN(C)C)c2nc(-c3ccccc3F)c[nH]2)no1` [Example 48], the IC50 in experiment [1] amounted to 45 µM; in experiment [2], 0.00015 µM; in experiment [3] it was 0.00018 µM; in experiment [5] it was 0.001 µM. The EC50 in experiment [4] (setting [7]) was found to be 28 nM; in experiment [4] (setting [8]), 69 nM.

`COc1nc2ccccc2cc1-c1cnc([C@H](CCCCCC(=O)c2ncco2)NC(=O)CN2CCCC2)[nH]1` [Example 52]: the IC50 in experiment [2] came out at 0.0011 µM; in experiment [3], 0.00056 µM; in experiment [6], 0.044 µM; in experiment [5], 0.0025 µM. The EC50 in experiment [4] (setting [7]) came to 23 nM; in experiment [4] (setting [8]), 81 nM.

As to `COc1nc2ccccc2cc1-c1cnc([C@H](CCCCCC(=O)c2ncco2)NC(=O)CN2CCOCC2)[nH]1` [Example 54], the IC50 was 0.0015 µM in experiment [2], 0.002 µM in experiment [3], 0.088 µM in experiment [6] and 0.0063 µM in experiment [5]. For the same molecule, the values for the EC50 in experiment [4] (setting [7]) and in experiment [4] (setting [8]) were 76 nM and 680 nM, respectively.

Consider `COc1nc2ccccc2cc1-c1cnc([C@H](CCCCCC(=O)c2ncco2)NC(=O)CCCN(C)C)[nH]1` [Example 55], for which the IC50 in experiment [1] worked out at 0.14 µM; in experiment [2] it was 0.00048 µM; in experiment [3], 0.0003 µM; in experiment [5] it was 0.0021 µM. Besides, the 50% effective concentration (EC50) in experiment [4] (setting [7]) amounted to 12 nM; in experiment [4] (setting [8]) it was 32 nM.

With `COc1cc2nc(C)ccc2cc1-c1cnc([C@H](CCCCCC(=O)c2ncco2)NC2CCOCC2)[nH]1` [Example 80, (S)-7-(5-(7-methoxy-2-methylquinolin-6-yl)-1H-imidazol-2-yl)-1-(oxazol-2-yl)-7-((tetrahydro-2H-pyran-4-yl)amino)heptan-1-one], the IC50 in experiment [1] was determined as 15 µM; in experiment [2], 0.0057 µM; in experiment [6], 3.5 µM; in experiment [5], 0.01 µM. The EC50 amounted to 550 nM in experiment [4] (setting [7]) and 680 nM in experiment [4] (setting [8]).

Consider `NC(CCCCCC(=O)c1ccon1)c1cnn(-c2ccc(F)cc2)c1` (stereo not drawn) [Example 121, 7-amino-7-[1-(4-fluorophenyl)-1H-pyrazol-4-yl]-1-isoxazol-3-ylheptan-1-one], for which the figures for the IC50 in experiment [1], in experiment [2] and in experiment [3] were 45 µM, 0.014 µM and 0.015 µM, respectively.

Turning to `NC(CCCCCC(=O)c1ccon1)c1cnn(-c2ccc(F)cc2)c1` (stereo not drawn) [Example 122, 7-amino-7-[1-(4-fluorophenyl)-1H-pyrazol-4-yl]-1-isoxazol-3-ylheptan-1-one], the results for the IC50 in experiment [2] and in experiment [3] were 0.57 µM and 0.5 µM, respectively.

As to `Cn1cc2cc(-n3ccc([C@H](N)CCCCCC(=O)c4ncco4)n3)ccc2n1` [Example 127, (7R)-7-amino-7-[1-(2-methyl-2H-indazol-5-yl)-1H-pyrazol-3-yl]-1-(1,3-oxazol-2-yl)heptan-1-one], the figures for the IC50 in experiment [2], in experiment [3] and in experiment [5] were 0.77 µM, 0.48 µM and 2.6 µM, respectively.

As to `N[C@@H](CCCCCC(=O)c1ncco1)c1ncc(-c2cnc(C3CC3)cn2)[nH]1` [Example 131, (7S)-7-amino-7-[5-(5-cyclopropylpyrazin-2-yl)-1H-imidazol-2-yl]-1-(1,3-oxazol-2-yl)heptan-1-one], the IC50 was over 0.9 µM in experiment [1], 0.009 µM in experiment [2], over 0.9 µM in experiment [6] and 0.023 µM in experiment [5]. In addition, the results for the EC50 in experiment [4] (setting [7]) and in experiment [4] (setting [8]) were 1300 nM and 1500 nM, respectively.

As to `COc1nc2ccccc2cc1-c1cnc([C@H](CCCCCC(=O)c2ncco2)NC(=O)c2ccc(OC(F)F)nc2)[nH]1` [Example 146, 6-(difluoromethoxy)-N-[(1S)-1-[5-(2-methoxyquinolin-3-yl)-1H-imidazol-2-yl]-7-(1,3-oxazol-2-yl)-7-oxoheptyl]pyridine-3-carboxamide], the half-inhibitory concentration (IC50) turned out to be 0.0023 µM in experiment [2], 0.0053 µM in experiment [3], 0.096 µM in experiment [6] and 0.016 µM in experiment [5]. Besides, the 50% effective concentration (EC50) in experiment [4] (setting [7]) stood at 130 nM; in experiment [4] (setting [8]), 440 nM.

Turning to `COc1nc2ccccc2cc1-c1cnc([C@H](CCCCCC(=O)c2ncco2)NC(=O)C2(c3ccncc3)CC2)[nH]1` [Example 151, N-[(1S)-1-[5-(2-methoxyquinolin-3-yl)-1H-imidazol-2-yl]-7-(1,3-oxazol-2-yl)-7-oxoheptyl]-1-pyridin-4-ylcyclopropanecarboxamide], the half-maximal inhibitory concentration (IC50) was found to be 0.0015 µM in experiment [2], 0.002 µM in experiment [3], 0.057 µM in experiment [6] and 0.0078 µM in experiment [5]. Also, the figures for the EC50 in experiment [4] (setting [7]) and in experiment [4] (setting [8]) were 68 nM and 790 nM, respectively.

On to `COc1nc2ccccc2cc1-c1cnc([C@H](CCCCCC(=O)c2ncco2)NC(=O)c2nc3ccccc3o2)[nH]1` [Example 153, N-[(1S)-1-[5-(2-methoxyquinolin-3-yl)-1H-imidazol-2-yl]-7-(1,3-oxazol-2-yl)-7-oxoheptyl]-1,3-benzoxazole-2-carboxamide], for which the IC50 in experiment [2] is 0.0042 µM; in experiment [3] it was 0.0085 µM; in experiment [6], 0.167 µM; in experiment [5] it was 0.015 µM. Besides, the EC50 amounted to 100 nM in experiment [4] (setting [7]) and 560 nM in experiment [4] (setting [8]).

As to `COc1nc2ccccc2cc1-c1cnc([C@H](CCCCCC(=O)c2ncco2)NC(=O)c2cc3n(n2)CCCC3)[nH]1` [Example 154], the IC50 was determined as 0.002 µM in experiment [2], 0.0051 µM in experiment [3], 0.11 µM in experiment [6] and 0.02 µM in experiment [5]. The concentration for a half-maximal effect (EC50) in experiment [4] (setting [7]) came out at 120 nM; in experiment [4] (setting [8]) it was 570 nM.

As for `COc1nc2ccccc2cc1-c1cnc([C@H](CCCCCC(=O)c2ncco2)NC(=O)C2(c3cnccn3)CC2)[nH]1` [Example 155, N-[(1S)-1-[5-(2-methoxyquinolin-3-yl)-1H-imidazol-2-yl]-7-(1,3-oxazol-2-yl)-7-oxoheptyl]-1-pyrazin-2-ylcyclopropanecarboxamide], the IC50 in experiment [2] worked out at 0.0013 µM; in experiment [3], 0.00081 µM; in experiment [6], 0.053 µM; in experiment [5] it was 0.0053 µM. The values for the EC50 in experiment [4] (setting [7]) and in experiment [4] (setting [8]) were 50 nM and 600 nM, respectively.

`COc1nc2ccccc2cc1-c1cnc([C@H](CCCCCC(=O)c2ncco2)NC(=O)[C@H]2CCC(=O)N2)[nH]1` [Example 156, N-[(1S)-1-[5-(2-methoxyquinolin-3-yl)-1H-imidazol-2-yl]-7-(1,3-oxazol-2-yl)-7-oxoheptyl]-5-oxo-D-prolinamide]: the half-inhibitory concentration (IC50) stood at 0.0011 µM in experiment [2], 0.0011 µM in experiment [3] and 0.0054 µM in experiment [5]. Further, the figures for the EC50 in experiment [4] (setting [7]) and in experiment [4] (setting [8]) were 88 nM and 420 nM, respectively.

For the molecule `COc1nc2ccccc2cc1-c1cnc([C@H](CCCCCC(=O)c2ncco2)NC(=O)[C@@H]2CCC(=O)N2)[nH]1` [Example 157, N-[(1S)-1-[5-(2-methoxyquinolin-3-yl)-1H-imidazol-2-yl]-7-(1,3-oxazol-2-yl)-7-oxoheptyl]-5-oxo-L-prolinamide], the IC50 in experiment [2] was 0.001 µM; in experiment [3] it was 0.00064 µM; in experiment [5] it was 0.0041 µM. Further, the EC50 stood at 77 nM in experiment [4] (setting [7]) and 380 nM in experiment [4] (setting [8]).

As for `COc1cc2nc(C)ccc2cc1-c1cnc([C@H](CCCCCC(=O)c2ncco2)NC(=O)Cn2cccn2)[nH]1` [Example 160, N-[(1S)-1-[5-(7-methoxy-2-methylquinolin-6-yl)-1H-imidazol-2-yl]-7-(1,3-oxazol-2-yl)-7-oxoheptyl]-2-(1H-pyrazol-1-yl)acetamide], the IC50 is over 0.9 µM in experiment [1], 0.00054 µM in experiment [2], 0.071 µM in experiment [6] and 0.0055 µM in experiment [5]. Besides, the half-maximal effective concentration (EC50) in experiment [4] (setting [7]) turned out to be 48 nM; in experiment [4] (setting [8]), 120 nM.
